Active and inactive are the calls of the source.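 The calls were made as follows: active = cell-killing curve, signal falling, whose fitted AC50 is at most twice the top tested dose; inconclusive = flat fit with a moderate signal drop, or a poor fit; inactive = the rest.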

In general, AC50 refers to the concentration giving half of the maximal activity seen.

One assay concerns HEK293T viability, ATP luminescence (CellTiter-Glo), 72 h. Nature of the assay: HEK293T cell cytotoxicity, dose response, cytotoxicity control, CellTiter-Glo luminescence, dry powder samples, set 14 (AID 743442).
Details: not given
For the compound `O=C(CSc1c2c(nc3ccc(Cl)cc13)CCCC2)Nc1ccc(Cl)cc1`, the AC50 is > 52 µM (inactive).
Still for that read-out and setting: to `CCN(CC)CCCNC(=O)c1ccc(OCC(=O)Nc2ccccc2C(F)(F)F)c(OC)c1` belongs > 52 µM (inactive); to `COc1cc(CNCCCN2CCOCC2)ccc1OCC(=O)Nc1cccc(C(F)(F)F)c1`, > 52 µM (inactive); to `O=C(COc1ccc(C(=O)NC2CCCCC2)cc1)Nc1cccc(C(F)(F)F)c1`, > 52 µM (inactive).
`CN(C(=O)COc1ccccc1C(=O)NCCc1ccccc1)c1ccccc1`: the AC50 is > 52 µM (inactive).
Still for that read-out and setting: to `O=C(CSc1c2c(nc3ccc(Cl)cc13)CCCC2)N1CCN(Cc2ccccc2)CC1` belongs > 52 µM (inactive).

System in a further assay: not listed separately
The assay is described as above. The following applies: HEK293T viability, ATP luminescence (CellTiter-Glo), 72 h; at 12 µM (top of the series). Background: Cellular ATP, detected with luciferase, serves as a proxy for viable cell number.
Consider `CCN1CCCC1CNC(=O)CSc1c2c(nc3ccc(Cl)cc13)CCCC2` (stereo not given), for which the activity change, negative = cytotoxicity was -4.32% (inactive).

The assay is the same for the next values; noted with them: HEK293T viability, ATP luminescence (CellTiter-Glo), 72 h; at 26 µM (top of the series).
As for `CN(CCNC(=O)CSc1c2c(nc3ccc(Cl)cc13)CCCC2)Cc1ccccc1`, the activity change, negative = cytotoxicity is -3.21% (inactive).
Still for that read-out and setting: in the case of `O=C(CSc1c2c(nc3ccc(Cl)cc13)CCCC2)NC1CCN(Cc2ccccc2)CC1` it was -3.75% (inactive); in that of `O=C(CSc1c2c(nc3ccc(Cl)cc13)CCCC2)NCCN1CCN(Cc2ccccc2)CC1`, -10.3% (inactive).
On the same count and under the same terms, in the case of `CN(CCOc1ccccc1)C(=O)c1ccc(OCC(=O)Nc2cccc(C(F)(F)F)c2)cc1` it was -0.662% (inactive); in that of `CCCCOc1ccc(NC(=O)COc2ccccc2C(=O)NCCOc2ccccc2)cc1`, -30.8% (inactive); in that of `O=C(COc1ccc(C(=O)N2CCC2)cc1)Nc1cccc(C(F)(F)F)c1`, -6.82% (inactive).
The same measure, in the same setting: in the case of `O=C(O)CSc1c2c(nc3cc(C(=O)NCc4cccs4)ccc13)CCCC2` it was -5.37% (inactive); in that of `O=C(CSc1cccc2cccnc12)NCc1ccco1`, -4.54% (inactive).
Take `O=C(CSc1c2c(nc3ccc(Cl)cc13)CCCC2)NCCN1CCOCC1`: the activity change, negative = cytotoxicity is -9.3% (inactive).
`O=C(CSc1c2c(nc3ccc(Cl)cc13)CCCC2)N1CCC(N2CCCCC2)CC1`: the activity change, negative = cytotoxicity is -3.26% (inactive).
In the case of `CN(C(=O)COc1ccccc1C(=O)Nc1ccccc1)c1ccccc1`, the activity change, negative = cytotoxicity is -12.4% (inactive).
The same measure, in the same setting: in the case of `COc1ccc(OCCNC(=O)c2ccccc2OCC(=O)Nc2ccc(NC(C)=O)cc2)cc1` it was -1.7% (inactive); in that of `O=C(CSc1c2c(nc3ccc(Cl)cc13)CCCC2)NCC1(c2ccccc2)CCCC1`, -8.09% (inactive); in that of `O=C(COc1ccc(C(=O)NCC2CCCO2)cc1)Nc1cccc(C(F)(F)F)c1` (stereo not given), -6.65% (inactive).
Same read-out and setting: to `CCOC(=O)C1CCN(C(=O)c2ccc(OCC(=O)Nc3ccc(OCC)cc3)c(OC)c2)CC1` belongs -2.45% (inactive).
Still for that read-out and setting: to `O=C(CSc1c2c(nc3ccc(Cl)cc13)CCCC2)NC1CC1` belongs -2.74% (inactive); to `CN(C)c1ccc(NC(=O)COc2ccccc2C(=O)N2CCOCC2)cc1`, -0.871% (inactive); to `O=C(CSc1ccc2ccccc2n1)NCc1ccco1`, -3.39% (inactive).
For `COCCN(Cc1ccco1)C(=O)CSc1c2c(nc3cc(Cl)ccc13)CCCC2`, the activity change, negative = cytotoxicity is -8.9% (inactive).
Turning to `COc1cc(C(=O)NCCCN(C)C)ccc1OCC(=O)Nc1cccc(C(F)(F)F)c1`, the activity change, negative = cytotoxicity was -18.3% (inactive).
The same measure, in the same setting: in the case of `O=C(CSc1c2c(nc3ccc(Cl)cc13)CCCC2)NC1CCCC1` it was -7.43% (inactive); in that of `COc1ccc(N(Cc2cccs2)C(=O)COc2ccccc2C(=O)Nc2ccccc2)cc1`, -7.68% (inactive); in that of `O=C(COc1ccc(C(=O)N2CCN(C(=O)C3CC3)CC2)cc1)Nc1cccc(C(F)(F)F)c1`, -7.18% (inactive).
Still for that read-out and setting: to `O=C(CSc1c2c(nc3ccc(Cl)cc13)CCCC2)NCC1CCCO1` (stereo not given) belongs -12.2% (inactive); to `Cn1c(=O)cc(SCC(=O)NCc2ccco2)c2ccccc21`, 0.641% (inactive).
Same read-out and setting: in the case of `O=C(COc1ccccc1C(=O)NCCOc1ccc(Cl)cc1)Nc1cccc(Cl)c1` it was -30.7% (inactive); in that of `O=C(CSc1c2c(nc3ccc(Cl)cc13)CCCC2)N1CCOCC1`, -5.19% (inactive); in that of `Cc1ccc(CNC(=O)CSc2c3c(nc4ccc(Cl)cc24)CCCC3)o1`, -8.3% (inactive).
`CN(C(=O)COc1ccc(Cl)cc1C(N)=O)c1ccccc1`: the activity change, negative = cytotoxicity was 1.16% (inactive).
In the case of `Cc1cccc(NC(=O)CSc2c3c(nc4ccc(Cl)cc24)CCCC3)n1`, the activity change, negative = cytotoxicity is -9.51% (inactive).
Still for that read-out and setting: to `CN(C(=O)COc1ccccc1C(N)=O)c1ccccc1` belongs -5.5% (inactive); to `Cc1ccc(NC(=O)COc2ccccc2C(=O)NCCN(C)C)cc1`, -1.02% (inactive); to `CCOc1ccc(NC(=O)COc2ccc(C(=O)N3CCC(C(N)=O)CC3)cc2OC)cc1`, -5.36% (inactive).
For the compound `Cc1cccc(CCNC(=O)CSc2c3c(nc4ccc(Cl)cc24)CCCC3)c1`, the activity change, negative = cytotoxicity was -5.98% (inactive).
With `O=C(CSc1c2c(nc3ccc(Cl)cc13)CCCC2)NCCCc1ccccc1`, the activity change, negative = cytotoxicity was -6.44% (inactive).
On the same count and under the same terms, to `CC(Sc1c2c(nc3ccc(Cl)cc13)CCCC2)C(=O)NCc1ccco1` (stereo not given) belongs -3.71% (inactive).
Still for that read-out and setting: in the case of `NC(=O)C1CCN(C(=O)c2ccc(OCC(=O)Nc3cccc(C(F)(F)F)c3)cc2)CC1` it was -5.23% (inactive).
The same measure, in the same setting: to `Cc1ccc(CNC(=O)CSc2c3c(nc4cc(Cl)ccc24)CCCC3)o1` belongs -11.4% (inactive).
On to `O=C(CSc1c2c(nc3ccc(Cl)cc13)CCCC2)NCc1cccnc1`, for which the activity change, negative = cytotoxicity was -3.63% (inactive).
On the same count and under the same terms, to `COc1ccc(NC(=O)CSc2c3c(nc4ccc(Cl)cc24)CCCC3)cc1` belongs -8.96% (inactive); to `COc1ccc(CNC(=O)CSc2c3c(nc4ccc(Cl)cc24)CCCC3)cc1`, -6.81% (inactive).
Still for that read-out and setting: to `O=C(CSc1c2c(nc3ccc(Cl)cc13)CCCC2)NCc1cccs1` belongs -5.31% (inactive); to `O=C(CSc1c2c(nc3ccc(Cl)cc13)CCCC2)NCc1ccccn1`, -4.85% (inactive).
The same measure, in the same setting: in the case of `CCCNC(=O)CSc1c2c(nc3ccc(Cl)cc13)CCCC2` it was -1.94% (inactive); in that of `O=C(CSc1c2c(nc3ccccc13)CCCC2)NCc1ccco1`, -6.44% (inactive).
For the compound `O=C(COc1ccccc1C(=O)NCc1ccccc1)Nc1ccccc1`, the activity change, negative = cytotoxicity is -5.85% (inactive).
Still for that read-out and setting: in the case of `O=C(CSc1c2c(nc3ccc(Cl)cc13)CCCC2)N1CCCCC1` it was -5.3% (inactive); in that of `CCOC(=O)C1CCN(C(=O)c2ccc(OCC(=O)N3CCOCC3)c(OC)c2)CC1`, -7.89% (inactive).
Still for that read-out and setting: in the case of `CCOC(=O)N1CCC(NC(=O)CSc2c3c(nc4ccc(Cl)cc24)CCCC3)CC1` it was -0.517% (inactive); in that of `O=C(CSc1c2c(nc3cc(Cl)ccc13)CCCC2)N(Cc1ccco1)C1CCCC1`, -4.09% (inactive).
On to `O=C(CSc1c2c(nc3ccc(Cl)cc13)CCCC2)N1CCNC1=O`, for which the activity change, negative = cytotoxicity is -2.06% (inactive).
Regarding `O=C(CSc1c2c(nc3ccc(Cl)cc13)CCCC2)NCc1ccco1`, the activity change, negative = cytotoxicity is -6.1% (inactive).
Same read-out and setting: to `O=C(CSc1c2c(nc3ccc(Cl)cc13)CCCC2)NCc1ccc(F)cc1` belongs -14.3% (inactive).
Same read-out and setting: to `COCCNC(=O)CSc1c2c(nc3ccc(Cl)cc13)CCCC2` belongs -7.42% (inactive).
Still for that read-out and setting: to `Cc1ccc(CNC(=O)CSc2c3c(nc4ccc(Cl)cc24)CCCC3)cc1` belongs -7.44% (inactive); to `CC(C)NC(=O)CSc1c2c(nc3ccc(Cl)cc13)CCCC2`, -3.4% (inactive).
For the compound `CCN(CC)C(=O)CSc1c2c(nc3ccc(Cl)cc13)CCCC2`, the activity change, negative = cytotoxicity is 0.809% (inactive).
Same read-out and setting: to `Cn1cc(SCC(=O)NCc2ccco2)c2ccccc21` belongs -10.8% (inactive).
On the same count and under the same terms, to `CC1(C)CC(NC(=O)c2ccc(OCC(=O)Nc3cccc(C(F)(F)F)c3)cc2)CC(C)(C)N1` belongs -24.7% (inactive).
Same read-out and setting: in the case of `COC(=O)CCCN(C)C(=O)c1ccc(OCC(=O)Nc2cccc(OC)c2)cc1` it was -4.85% (inactive).
On to `Cc1ccc2nc(Cl)cc(SCC(=O)NCc3ccco3)c2c1`, for which the activity change, negative = cytotoxicity was -11.1% (inactive).
On the same count and under the same terms, in the case of `O=C(CSc1c2c(nc3ccc(Cl)cc13)CCCC2)NCc1ccc2c(c1)OCO2` it was 0.001% (inactive); in that of `O=C(CSc1c2c(nc3ccc(Cl)cc13)CCCC2)Nc1ccccc1`, -10.7% (inactive).

Source of the values: PubChem BioAssay AID743442 (Broad Institute, 2014).
